# How the values were obtained:
# [1] = tested on: Staphylococcus aureus; assay: Antibacterial activity against methicillin-resistant Staphylococcus aureus clinical isolate M-18 assessed as inhibition of visible growth incubated for 16 to 18 hrs by CLSI method; assay type: functional; conditions: time 16-18 hrs, read-out: MIC100
# [2] = tested on: Staphylococcus aureus; assay: Antibacterial activity against methicillin-resistant Staphylococcus aureus clinical isolate M-20 assessed as inhibition of visible growth incubated for 16 to 18 hrs by CLSI method; assay type: functional; conditions: time 16-18 hrs, read-out: MIC100
# [3] = tested on: Salmonella enterica; assay: Antibacterial activity against Salmonella enterica 8389 assessed as inhibition of visible growth incubated for 16 to 18 hrs by CLSI method; assay type: functional; conditions: time 16-18 hrs, read-out: MIC100
# [4] = tested on: Bacillus subtilis; assay: Antibacterial activity against Bacillus subtilis assessed as inhibition of visible growth incubated for 16 to 18 hrs by CLSI method; assay type: functional; conditions: time 16-18 hrs, read-out: MIC100
# [5] = tested on: Staphylococcus aureus; assay: Antibacterial activity against methicillin-resistant Staphylococcus aureus clinical isolate M-17 assessed as inhibition of visible growth incubated for 16 to 18 hrs by CLSI method; assay type: functional; conditions: time 16-18 hrs, read-out: MIC100
# [6] = tested on: Salmonella enterica; assay: Antibacterial activity against Salmonella enterica 349812 assessed as inhibition of visible growth incubated for 16 to 18 hrs by CLSI method; assay type: functional; conditions: time 16-18 hrs, read-out: MIC100
# [7] = tested on: Staphylococcus aureus; assay: Antibacterial activity against Staphylococcus aureus ATCC29213 assessed as inhibition of visible growth incubated for 16 to 18 hrs by CLSI method; assay type: functional; conditions: time 16-18 hrs, read-out: MIC100
# [8] = tested on: Staphylococcus aureus; assay: Antibacterial activity against methicillin-resistant Staphylococcus aureus clinical isolate M-12 assessed as inhibition of visible growth incubated for 16 to 18 hrs by CLSI method; assay type: functional; conditions: time 16-18 hrs, read-out: MIC100
# [9] = tested on: Staphylococcus aureus; assay: Antibacterial activity against methicillin-resistant Staphylococcus aureus clinical isolate M-19 assessed as inhibition of visible growth incubated for 16 to 18 hrs by CLSI method; assay type: functional; conditions: time 16-18 hrs, read-out: MIC100
# [10] = tested on: Enterococcus faecalis; assay: Antibacterial activity against Enterococcus faecalis ATCC29212 assessed as inhibition of visible growth incubated for 16 to 18 hrs by CLSI method; assay type: functional; conditions: time 16-18 hrs, read-out: MIC100
# [11] = tested on: Micrococcus luteus; assay: Antibacterial activity against Micrococcus luteus assessed as inhibition of visible growth incubated for 16 to 18 hrs by CLSI method; assay type: functional; conditions: time 16-18 hrs, read-out: MIC100
# [12] = Selectivity index, HC50 for hemolytic activity in sheep RBC to MIC for antibacterial activity against Staphylococcus aureus ATCC29213; assay type: toxicity; conditions: sheep red blood cells (erythrocytes), read-out: Selectivity Index
# [13] = tested on: Staphylococcus aureus; assay: Antibacterial activity against methicillin-resistant Staphylococcus aureus clinical isolate M-14 assessed as inhibition of visible growth incubated for 16 to 18 hrs by CLSI method; assay type: functional; conditions: time 16-18 hrs, read-out: MIC100
# [14] = tested on: Staphylococcus aureus; assay: Antibacterial activity against methicillin-resistant Staphylococcus aureus clinical isolate M-16 assessed as inhibition of visible growth incubated for 16 to 18 hrs by CLSI method; assay type: functional; conditions: time 16-18 hrs, read-out: MIC100
# [15] = tested on: Staphylococcus aureus; assay: Antibacterial activity against methicillin-resistant Staphylococcus aureus clinical isolate M-15 assessed as inhibition of visible growth incubated for 16 to 18 hrs by CLSI method; assay type: functional; conditions: time 16-18 hrs, read-out: MIC100
# [16] = tested on: Staphylococcus aureus; assay: Antibacterial activity against methicillin-resistant Staphylococcus aureus clinical isolate M-11 assessed as inhibition of visible growth incubated for 16 to 18 hrs by CLSI method; assay type: functional; conditions: time 16-18 hrs, read-out: MIC100
# [17] = Hemolytic activity in sheep RBC assessed as hemolysis incubated for 1 hr; assay type: ADME, cell-based, Ovis aries, Erythrocyte; conditions: sheep red blood cells (erythrocytes)
# [18] = tested on: Escherichia coli; assay: Antibacterial activity against Escherichia coli ATCC25922 assessed as inhibition of visible growth incubated for 16 to 18 hrs by CLSI method; assay type: functional; conditions: time 16-18 hrs, read-out: MIC100
# [19] = tested on: Stenotrophomonas maltophilia; assay: Antibacterial activity against Stenotrophomonas maltophilia assessed as inhibition of visible growth incubated for 16 to 18 hrs by CLSI method; assay type: functional; conditions: time 16-18 hrs, read-out: MIC100
# [20] = tested on: Staphylococcus aureus; assay: Antibacterial activity against methicillin-resistant Staphylococcus aureus clinical isolate M-13 assessed as inhibition of visible growth incubated for 16 to 18 hrs by CLSI method; assay type: functional; conditions: time 16-18 hrs, read-out: MIC100
compound,measurement,setting,value
C=CCc1ccc(OCCC[N+](C)(C)CC(=O)NCCC)c(-c2ccc(OCCC[N+](C)(C)CC(=O)NCCC)c(CC=C)c2)c1.[Br-].[Br-],MIC,[1],4 µg/mL
same,MIC,[2],2 µg/mL
same,MIC,[3],32 µg/mL
same,MIC,[4],1 µg/mL
same,MIC,[5],4 µg/mL
same,MIC,[6],32 µg/mL
same,MIC,[7],2 µg/mL
same,MIC,[8],4 µg/mL
same,MIC,[9],4 µg/mL
same,MIC,[10],2 µg/mL
same,MIC,[11],4 µg/mL
same,selectivity ratio,[12],341
same,MIC,[13],2 µg/mL
same,MIC,[14],2 µg/mL
same,MIC,[15],2 µg/mL
same,MIC,[16],4 µg/mL
same,HC50 at 1 h,[17],682 µg/mL
same,MIC,[18],16 µg/mL
same,MIC,[19],16 µg/mL
same,MIC,[20],4 µg/mL
C=CCc1ccc(OCC[N+](C)(C)CC(=O)N(CCCC)CCCC)c(-c2ccc(OCC[N+](C)(C)CC(=O)N(CCCC)CCCC)c(CC=C)c2)c1.[Br-].[Br-],MIC,[1],8 µg/mL
same,MIC,[2],8 µg/mL
same,MIC,[3],32 µg/mL
same,MIC,[4],4 µg/mL
same,MIC,[5],2 µg/mL
same,MIC,[6],32 µg/mL
same,MIC,[7],4 µg/mL
same,MIC,[8],4 µg/mL
same,MIC,[9],8 µg/mL
same,MIC,[10],2 µg/mL
same,MIC,[11],4 µg/mL
same,selectivity ratio,[12],> 320
same,MIC,[13],4 µg/mL
same,MIC,[14],2 µg/mL
same,MIC,[15],2 µg/mL
same,MIC,[16],4 µg/mL
same,HC50 at 1 h,[17],> 1280 µg/mL
same,MIC,[18],16 µg/mL
same,MIC,[19],32 µg/mL
same,MIC,[20],4 µg/mL
C=CCc1ccc(O)c(-c2cc(CC=C)ccc2OCC[N+](C)(C)CC(=O)NCCCCCC)c1.[Br-],MIC,[1],8 µg/mL
same,MIC,[2],4 µg/mL
same,MIC,[3],64 µg/mL
same,MIC,[4],4 µg/mL
same,MIC,[5],8 µg/mL
same,MIC,[6],64 µg/mL
same,MIC,[7],4 µg/mL
same,MIC,[8],8 µg/mL
same,MIC,[9],8 µg/mL
same,MIC,[10],16 µg/mL
same,MIC,[11],4 µg/mL
same,selectivity ratio,[12],181
same,MIC,[13],4 µg/mL
same,MIC,[14],4 µg/mL
same,MIC,[15],4 µg/mL
same,MIC,[16],8 µg/mL
same,HC50 at 1 h,[17],723 µg/mL
same,MIC,[18],32 µg/mL
same,MIC,[19],64 µg/mL
same,MIC,[20],8 µg/mL
C=CCc1ccc(OCCCC[N+](C)(C)CC(=O)N(CCCC)CCCC)c(-c2ccc(OCCCC[N+](C)(C)CC(=O)N(CCCC)CCCC)c(CC=C)c2)c1.[Br-].[Br-],MIC,[1],8 µg/mL
same,MIC,[2],8 µg/mL
same,MIC,[3],16 µg/mL
same,MIC,[4],2 µg/mL
same,MIC,[5],8 µg/mL
same,MIC,[6],8 µg/mL
same,MIC,[7],2 µg/mL
same,MIC,[8],8 µg/mL
same,MIC,[9],4 µg/mL
same,MIC,[10],4 µg/mL
same,MIC,[11],4 µg/mL
same,selectivity ratio,[12],316
same,MIC,[13],8 µg/mL
same,MIC,[14],16 µg/mL
same,MIC,[15],8 µg/mL
same,MIC,[16],4 µg/mL
same,HC50 at 1 h,[17],633 µg/mL
same,MIC,[18],8 µg/mL
same,MIC,[19],16 µg/mL
same,MIC,[20],8 µg/mL
C=CCc1ccc(O)c(-c2cc(CC=C)ccc2OCCCC[N+](C)(C)CC(=O)NCCCC)c1.[Br-],MIC,[1],1 µg/mL
same,MIC,[2],1 µg/mL
same,MIC,[3],16 µg/mL
same,MIC,[4],0.5 µg/mL
same,MIC,[5],2 µg/mL
same,MIC,[6],16 µg/mL
same,MIC,[7],2 µg/mL
same,MIC,[8],2 µg/mL
same,MIC,[9],1 µg/mL
same,MIC,[10],2 µg/mL
same,MIC,[11],0.5 µg/mL
same,selectivity ratio,[12],277
same,MIC,[13],2 µg/mL
same,MIC,[14],1 µg/mL
same,MIC,[15],1 µg/mL
same,MIC,[16],4 µg/mL
same,HC50 at 1 h,[17],555 µg/mL
same,MIC,[18],8 µg/mL
same,MIC,[19],8 µg/mL
same,MIC,[20],2 µg/mL
C=CCc1ccc(O)c(-c2cc(CC=C)ccc2OCC[N+](C)(C)CC(=O)NCCCCC)c1.[Br-],MIC,[1],8 µg/mL
same,MIC,[2],8 µg/mL
same,MIC,[3],64 µg/mL
same,MIC,[4],4 µg/mL
same,MIC,[5],8 µg/mL
same,MIC,[6],64 µg/mL
same,MIC,[7],8 µg/mL
same,MIC,[8],16 µg/mL
same,MIC,[9],8 µg/mL
same,MIC,[10],16 µg/mL
same,MIC,[11],4 µg/mL
same,selectivity ratio,[12],80.7
same,MIC,[13],8 µg/mL
same,MIC,[14],8 µg/mL
same,MIC,[15],8 µg/mL
same,MIC,[16],16 µg/mL
same,HC50 at 1 h,[17],645 µg/mL
same,MIC,[18],32 µg/mL
same,MIC,[19],64 µg/mL
same,MIC,[20],8 µg/mL
C=CCc1ccc(OCCC[N+](C)(C)CC(=O)NCCCCCC)c(-c2ccc(OCCC[N+](C)(C)CC(=O)NCCCCCC)c(CC=C)c2)c1.[Br-].[Br-],MIC,[1],4 µg/mL
same,MIC,[2],4 µg/mL
same,MIC,[3],2 µg/mL
same,MIC,[4],2 µg/mL
same,MIC,[5],4 µg/mL
same,MIC,[6],4 µg/mL
same,MIC,[7],4 µg/mL
same,MIC,[8],4 µg/mL
same,MIC,[9],4 µg/mL
same,MIC,[10],4 µg/mL
same,MIC,[11],2 µg/mL
same,selectivity ratio,[12],269
same,MIC,[13],4 µg/mL
same,MIC,[14],4 µg/mL
same,MIC,[15],4 µg/mL
same,MIC,[16],4 µg/mL
same,HC50 at 1 h,[17],1080 µg/mL
same,MIC,[18],8 µg/mL
same,MIC,[19],8 µg/mL
same,MIC,[20],4 µg/mL

# Source: ChEMBL document CHEMBL4831516, “Development of Membrane-Active Honokiol/Magnolol Amphiphiles as Potent Antibacterial Agents against Methicillin-Resistant Staphylococcus aureus (MRSA)” (J Med Chem, 2021)
